From patent US12305185B2, “Expression vector and method” (MOUNT SPEC I[…] LTD, priority 2018, dated 2025)

Test system: aRPE-19 human retinal pigmented epithelial cell line
Experiment: Activation and deactivation of vector constructs containing luciferase (Nano-Glo luminescence assay)
Format: cell-based
Conditions: luminescence on day 7
Protocol: ARPE-19 cells were seeded as described above. 12-24 hours later, cells were transfected with pAAV-LTetL-luc and pAAV-LCuL-luc. Media was replaced the next day and doxycycline or cumate was added to a subset of cells (FIG. 7). The media from the cells were assayed for the expression of marker gene, luciferase, using the Nano-Glo Luciferase assay on day 4 after having a media change on day 3. The Nano-Glow luciferase assay was performed as described above.
Following the luciferase assay, media was changed in all the wells. A subset of cells activated with doxycycline and cumate were washed to deactivate the vector.
A human retinal pigmented epithelial cell line (aRPE-19) was transfected with vector constructs containing Tet or Cu regulatory sequences driving the expression of the marker gene luciferase. Twenty-four hours later, the cells were treated with or without Tet or Cu and incubated for a further 48 hours before assessing the expression of luciferase. The ability of the system to stop expression of the transgene (Luciferase) was examined by removing the Tet or Cu from the cells by washing prior to re-examining Luciferase expression. Cells without Tet or Cu were used as a control as were cells where Tet or Cu was not removed.

## CC(C)c1ccc(C(=O)O)cc1 [Cu, cumate]
aRPE-19 cells transfected with Tet or Cu regulated luciferase vector
  luciferase expression on addition of regulator compound: able to induce significant levels of luciferase expression
aRPE-19 cells, 3 days of washes
  luciferase expression after removal of regulator compound by washing: significantly less luciferase being detected
